Experimental data reported in patent publication US9546164B2 (GENENTECH, INC., priority 2013, dated 2017).
Counter-ions that a name gives are not always drawn. Like-named read-outs stand apart in the source and are kept apart here.

Target: hNav1.7 (Homo sapiens (Human), UniProt Q15858)
Assay: Tritiated sulfonamide competitive binding to membranes from cells expressing hNav1.7 and the β1 subunit;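 further: Filter-bound radioactivity counted by liquid scintillation, nonspecific binding defined with excess unlabelled ligand, IC50 fitted to percent inhibition of specific binding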
[1] = read-out: Ligand Binding Assay, 100 pM [3H]compound, membranes with hNav1.7 and β1 subunit, 18 h, room temperature

hNav1.7, sequence (Q15858 other isoform, or with tags, fused parts or gaps): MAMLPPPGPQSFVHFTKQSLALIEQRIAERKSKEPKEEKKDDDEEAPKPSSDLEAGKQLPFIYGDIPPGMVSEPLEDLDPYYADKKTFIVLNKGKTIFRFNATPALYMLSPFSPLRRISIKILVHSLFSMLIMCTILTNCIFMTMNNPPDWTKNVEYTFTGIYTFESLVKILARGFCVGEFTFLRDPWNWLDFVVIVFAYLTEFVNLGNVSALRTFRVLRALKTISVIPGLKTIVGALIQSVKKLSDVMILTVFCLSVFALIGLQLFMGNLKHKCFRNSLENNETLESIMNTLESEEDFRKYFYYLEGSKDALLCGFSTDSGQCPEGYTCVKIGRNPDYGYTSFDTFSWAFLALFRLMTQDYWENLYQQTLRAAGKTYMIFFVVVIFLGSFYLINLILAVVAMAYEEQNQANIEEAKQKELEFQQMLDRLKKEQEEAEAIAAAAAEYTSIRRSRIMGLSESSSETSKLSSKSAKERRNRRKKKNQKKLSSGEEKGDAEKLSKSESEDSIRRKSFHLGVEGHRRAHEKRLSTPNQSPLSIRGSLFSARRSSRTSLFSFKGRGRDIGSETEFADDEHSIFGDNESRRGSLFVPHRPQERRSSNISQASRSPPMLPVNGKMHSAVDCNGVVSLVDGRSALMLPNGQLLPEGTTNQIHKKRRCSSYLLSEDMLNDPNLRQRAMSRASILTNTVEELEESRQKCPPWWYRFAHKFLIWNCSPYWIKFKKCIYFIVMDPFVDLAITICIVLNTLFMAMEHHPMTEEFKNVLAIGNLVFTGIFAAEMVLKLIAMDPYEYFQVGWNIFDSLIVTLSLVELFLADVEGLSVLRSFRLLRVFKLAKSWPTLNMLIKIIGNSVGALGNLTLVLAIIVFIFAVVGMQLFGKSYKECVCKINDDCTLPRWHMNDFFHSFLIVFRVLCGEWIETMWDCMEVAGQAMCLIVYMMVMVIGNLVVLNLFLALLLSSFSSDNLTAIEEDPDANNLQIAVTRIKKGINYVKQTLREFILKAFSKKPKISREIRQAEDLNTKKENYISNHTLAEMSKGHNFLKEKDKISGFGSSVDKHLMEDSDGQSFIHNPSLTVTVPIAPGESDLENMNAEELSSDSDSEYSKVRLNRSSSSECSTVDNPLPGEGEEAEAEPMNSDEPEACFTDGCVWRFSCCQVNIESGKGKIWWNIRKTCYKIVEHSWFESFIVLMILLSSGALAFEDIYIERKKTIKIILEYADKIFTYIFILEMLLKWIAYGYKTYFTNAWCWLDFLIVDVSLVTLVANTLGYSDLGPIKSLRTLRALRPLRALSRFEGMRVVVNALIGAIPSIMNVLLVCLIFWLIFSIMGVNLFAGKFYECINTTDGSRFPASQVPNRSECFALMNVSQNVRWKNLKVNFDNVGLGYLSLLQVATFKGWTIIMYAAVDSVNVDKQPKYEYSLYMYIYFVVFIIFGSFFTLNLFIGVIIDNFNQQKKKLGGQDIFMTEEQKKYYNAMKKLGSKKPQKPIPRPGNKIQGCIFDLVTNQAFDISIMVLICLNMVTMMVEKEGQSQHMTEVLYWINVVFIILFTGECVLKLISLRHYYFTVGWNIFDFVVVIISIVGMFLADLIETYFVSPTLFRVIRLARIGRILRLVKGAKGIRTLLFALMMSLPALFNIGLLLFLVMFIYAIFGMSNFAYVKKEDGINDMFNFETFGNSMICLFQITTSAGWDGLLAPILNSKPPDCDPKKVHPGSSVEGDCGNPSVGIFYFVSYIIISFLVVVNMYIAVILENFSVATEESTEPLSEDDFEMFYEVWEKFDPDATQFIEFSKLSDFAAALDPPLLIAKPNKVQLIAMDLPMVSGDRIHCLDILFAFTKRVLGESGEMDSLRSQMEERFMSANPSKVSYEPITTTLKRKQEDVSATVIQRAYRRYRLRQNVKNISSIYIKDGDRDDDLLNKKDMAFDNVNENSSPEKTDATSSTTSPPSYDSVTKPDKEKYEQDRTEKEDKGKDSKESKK
hNav1.7, sequence (Q07699 19-218 partner): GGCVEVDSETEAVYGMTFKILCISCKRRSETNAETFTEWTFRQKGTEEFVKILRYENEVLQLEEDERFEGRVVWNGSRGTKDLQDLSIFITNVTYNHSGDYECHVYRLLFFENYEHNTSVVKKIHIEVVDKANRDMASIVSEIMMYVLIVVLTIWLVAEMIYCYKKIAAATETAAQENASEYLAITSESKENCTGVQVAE

| SMILES | IC50 [1] [nM] | IC50 [nM] |
| --- | --- | --- |
| C[C@@H](c1ccccc1)N1CC(COc2cc(F)c(C(=O)NS(C)(=O)=O)cc2C2CC2)C1 [Example 84, (S)-5-Cyclopropyl-2-fluoro-N-(methylsulfonyl)-4-((1-(1-phenylethyl)azetidin-3-yl)methoxy)benzamide] | 1240 |  |
| C[C@H](c1cc(Cl)cc(Cl)c1)N1CCC[C@@H](Oc2cc(F)c(C(=O)NS(C)(=O)=O)cc2C2CC2)C1 (single isomer, unassigned) [Example 51] |  | 2.1 |
| CS(=O)(=O)NC(=O)c1cc(C2CC2)c(O[C@@H]2CCCN([C@H](c3ccc(F)cc3Cl)C(F)(F)F)C2)cc1F (single isomer, unassigned) [Example 297] | 10.8 |  |
| O=C(NS(=O)(=O)N1CCC1)c1cc(C2CC2)c(CN2CCO[C@H](Cc3ccc(Cl)c(Cl)c3)C2)cc1F [Example 459, (R)—N-(azetidin-1-ylsulfonyl)-5-cyclopropyl-4-((2-(3,4-dichlorobenzyl)morpholino)methyl)-2-fluorobenzamide] | 12.5 |  |
| O=C(NS(=O)(=O)N1CCC1)c1cc(C2CC2)c(O[C@@H]2CCCN(Cc3ccc(Cl)c(Cl)c3)C2)cc1F [Example 19, (R)—N-(azetidin-1-ylsulfonyl)-5-cyclopropyl-4-((1-(3,4-dichlorobenzyl)piperidin-3-yl)oxy)-2-fluorobenzamide] |  | 4.9 |
| CS(=O)(=O)NC(=O)c1cc(C2CC2)c(OCC2CCN(c3cc(Cl)cc(Cl)c3)CC2)cc1F [Example 292, 5-Cyclopropyl-4-((1-(3,5-dichlorophenyl)piperidin-4-yl)methoxy)-2-fluoro-N-(methylsulfonyl)benzamide] | 2.9 |  |
| CS(=O)(=O)NC(=O)c1cc(C2CC2)c(CN2CCC(Oc3cc(C(F)(F)F)c(Cl)cn3)CC2)cc1F [Example 521, 4-((4-((5-chloro-4-(trifluoromethyl)pyridin-2-yl)oxy)piperidin-1-yl)methyl)-5-cyclopropyl-2-fluoro-N-(methylsulfonyl)benzamide, trifluoroacetic acid salt] |  | 7.9 |
| CCS(=O)(=O)NC(=O)c1cc(C2CC2)c(OCC2CCN(C3(c4cc(Cl)cc(Cl)c4)COC3)CC2)cc1F [Example 177, 5-Cyclopropyl-4-((1-(3-(3,5-dichlorophenyl)oxetan-3-yl)piperidin-4-yl)methoxy)-N-(ethylsulfonyl)-2-fluorobenzamide] | 8.3 |  |

More lines, now with the values ahead:

| IC50 [1] [nM] | IC50 [nM] | SMILES |
| --- | --- | --- |
| 17.2 |  | O=C(NS(=O)(=O)C1CC1)c1cc(C2CC2)c(OCC2CCN(S(=O)(=O)c3ccc(OC(F)(F)F)cc3)CC2)cc1F [Example 379, 5-cyclopropyl-N-(cyclopropylsulfonyl)-2-fluoro-4-((1-((4-(trifluoromethoxy)phenyl)sulfonyl)piperidin-4-yl)methoxy)benzamide] |
| 103 |  | CC1(COc2cc(F)c(C(=O)NS(=O)(=O)C3CC3)cc2C2CC2)CN(c2ccncc2C(F)(F)F)C1 [Example 489, 5-cyclopropyl-N-(cyclopropylsulfonyl)-2-fluoro-4-((3-methyl-1-(3-(trifluoromethyl)pyridin-4-yl)azetidin-3-yl)methoxy)benzamide, trifluoroacetic acid salt] |
| 5.7 |  | C[C@H](c1cc(Cl)cc(C(F)(F)F)c1)N1CCC(COc2cc(F)c(C(=O)NS(C)(=O)=O)cc2C2CC2)CC1 (single isomer, unassigned) [Example 276] |
| 25.1 |  | CS(=O)(=O)NC(=O)c1cc(C2CC2)c(OCC2CCN(S(=O)(=O)c3ccc(Br)c(F)c3)CC2)cc1F [Example 368, 4-((1-((4-bromo-3-fluorophenyl)sulfonyl)piperidin-4-yl)methoxy)-5-cyclopropyl-2-fluoro-N-(methylsulfonyl)benzamide] |
| 17 |  | CS(=O)(=O)NC(=O)c1cc(C2CC2)c(OCC2CCN(Cc3ccc(C(F)(F)F)c(Cl)c3)CC2)cc1F [Example 220, 4-((1-(3-Chloro-4-(trifluoromethyl)benzyl)piperidin-4-yl)methoxy)-5-cyclopropyl-2-fluoro-N-(methylsulfonyl)benzamide] |
